Test results reported in US20200163984A1, “USE OF ISOVALERYL SPIRAMYCIN I, II AND/OR III IN MANUFACTURING MEDICAMENT FOR TREATING AND/OR PREVENTING TUMOR, AND MEDICAMENT” (SHENYANG FUYANG PHARMACEUTICAL TECHNOLOGY CO., LTD., priority 2017, published 2020).
Each block holds one molecule with its values, some of them ahead of it.

Columns and labels:
[1] = system: NK cell activity of spleen cells against K562 cells; experiment: Natural killer (NK) cell activity of Lewis lung cancer tumor-bearing mice; type: in vivo, C57BL/6 mouse
Protocol: In the Lewis lung cancer model, the mice inoculated with the tumor were randomly divided into groups with 10 mice in each group the next day of inoculation. The groups included: a model control group, a positive drug cyclophosphamide control group (CTX, 30 mg/kg), isovaleryl spiramycin I groups with doses of 13, 26 and 52 mg/kg; isovaleryl spiramycin II groups with doses of 13, 26 and 52 mg/kg; isovaleryl spiramycin III groups with doses of 13, 26 and 52 mg/kg. Each group was continuously administered intragastrically for 15 days with a dose of 20 ml/kg.
The serum-free RPMI 1640 medium was placed in a dish, and then the dish was placed on ice. The spleen was aseptically taken and gently ground with a sterile glass slide to prepare a single cell suspension. The single cell suspension was filtered with a double-layer sterile gauze, washed twice with serum-free RPMI1640 medium, and centrifuged at 1,500 rpm for 5 min to remove the obtained supernatant. 2 mL of red blood cell lysate was added to the treated suspension, the mixture was allowed to stand for 2 min, and then 8 mL of RPMI 1640 medium was added, centrifuging was performed at 1,500 rpm for 5 min to remove the obtained supernatant, and then washing was performed twice with the RPMI 1640 medium. […] A single cell suspension was prepared by using a RPMI 1640 medium containing 10% fetal bovine serum.
The spleen cell suspension was taken, and the cell density was adjusted to 1×10^7/mL (effector cells). A suspension of K562 cells was prepared with a cell density of 1×10^5/mL (target cells). Each mouse was set with: A. effector cells:target cell well (quantity ratio 20:1) to which […] of spleen cell suspension and 100 μL of K562 cell suspension were added; B. an effector cell control well to which 100 μL of spleen cell suspension and 100 μL of RPMI 1640 medium were added; and C. a target cell control well to which 100 μL of K562 cell suspension and 100 μL of RPMI 1640 medium were added. The above cells were added to a 96-well plate. After the 96-well plate was transferred to a saturated humidity condition with a volume fraction of 5% CO2 at 37° C. for incubation for 22 h, 10 μL of MTT solution (5 g/L) was added to each well, and incubation was continued to be performed for 4 hours under the same conditions, then the culture was terminated. 100 μl of a triple solution (SDS 10 g, 10M HCl 0.1 mL, isobutanol 5 mL, diluted with distilled water to 100 mL) was added, and the plate was shaken for 10 min to fully dissolve the crystals, and the Optical Density (OD) of each well at 490 nm was measured, and the NK cell activity was calculated. NK cell activity (%)=[TO−(S−E)]/TO×100%, wherein TO is the Optical Density of the target cell control well, S is the Optical Density of the effector cell control well, and E is the Optical Density of the effector cell.

[2] = system: transplanted tumor of human bladder cancer cell T-24; experiment: T-24 transplanted tumor in nude mice
Protocol: (§1) Then cell concentration was adjusted to 1×10^7/ml with matrigel, then each nude mouse was inoculated subcutaneously with 0.2 ml of cells at its right armpit and recorded as the first day of inoculation. When the tumor grows to be greater than or equal to 100 mm^3, the mice were randomly divided into 11 groups with 6 mice in each group: isovaleryl spiramycin I groups with doses of 25, 50 and 100 mg/kg, isovaleryl spiramycin II groups with doses of 25, 50 and 100 mg/kg, and isovaleryl spiramycin III groups with doses of 25, 50 and 100 mg/kg. Each group was continuously administered intragastrically for 30 days with a dose of 20 ml/kg. The mice were sacrificed the next day after drug withdrawal and the indicators were tested. The long diameter and short diameter of the tumor, and the body weight of each mouse were recorded every 3 days from drug administration to nude mouse sacrifice.
(§2) The body weight of the nude mice and the long diameter (a) and short diameter (b) of the transplanted tumor were measured every 3 days, and the tumor volume (v), relative tumor volume (RTV) and relative tumor proliferation rate (T/C) are calculated respectively according to the following formulas, wherein V=a×b^2/2; RTV=V/V0 (V0 is the tumor volume before administration, V is the tumor volume before sacrifice), and T/C (%)=treatment group RTV/model control group RTV×100%.
(§3) Each mouse was weighed and sacrificed. After the tumor was completely stripped off from the body of the mouse, the non-tumor tissues such as blood stains and fat were removed to weigh the tumor and calculate the tumor growth inhibition rate. The average tumor weight of each group of mice is used as an indicator of efficacy. Tumor growth inhibition rate (%)=(1−the average tumor weight of the treatment group/the average tumor weight of the model group)×100%.

[3] = system: transplanted tumor of HT-29 cells; experiment: HT-29 transplanted tumor in nude mice; details: for Tumor Volume (mm3) (d30): d 30
Protocol: as §1, §2, §3

[4] = T-24, high dose (100 mg/kg in method) i.g. 30 days
[5] = T-24, low dose (25 mg/kg in method) i.g. 30 days
[6] = T-24, medium dose (50 mg/kg in method) i.g. 30 days
[7] = HT-29, high dose (100 mg/kg in method) i.g. 30 days
[8] = HT-29, low dose (25 mg/kg in method) i.g. 30 days
[9] = HT-29, medium dose (50 mg/kg in method) i.g. 30 days

SMILES: O=P1(N(CCCl)CCCl)NCCCO1 (centres unmarked) [Cyclophosphamide, cyclophosphamide, reference compound]
- NK Cell Activity ([1]; 26 mg/kg): 35.4 ± 6.6 %
- NK cell activity compared with the control group ([1]; cyclophosphamide, P<0.05): significantly lower
- Inhibition Rate (%) ([2]; dose 30 mg/kg): 73.04%
- Relative Tumor Proliferation Rate (T/C) ([2]; dose 30 mg/kg): 21.60%
- Relative Tumor Volume (RTV) ([2]; dose 30 mg/kg): 2.85 ± 0.50
- Tumor Weight ([2]; dose 30 mg/kg): 0.51 ± 0.12 g
- Body Weight (g) (d1) ([2]; dose 30 mg/kg, d 1): 19.53 ± 0.61 g
- Tumor Volume (mm3) (d 1) ([2]; dose 30 mg/kg, d 1): 136.87 ± 19.82 mm3
- Body Weight (g) (d30) ([2]; dose 30 mg/kg, d 30): 27.28 ± 1.43 g
- Tumor Volume (mm3) (d30) ([2]; dose 30 mg/kg, d 30): 389.34 ± 82.07 mm3
- Inhibition Rate (%) ([3]; HT-29 nude mice, 30 mg/kg): 78.87%
- Tumor Weight ([3]; HT-29 nude mice, 30 mg/kg): 0.50 ± 0.25 g
- Body Weight (g) (d1) ([3]; HT-29 nude mice, 30 mg/kg, d1): 21.42 ± 1.35 g
- Body Weight (g) (d30) ([3]; HT-29 nude mice, 30 mg/kg, d30): 18.69 ± 1.21 g
- Relative Tumor Proliferation Rate (T/C) ([3]; dose 30 mg/kg): 19.84%
- Relative Tumor Volume (RTV) ([3]; dose 30 mg/kg): 2.86 ± 1.44
- Tumor Volume (mm3) (d 1) ([3]; dose 30 mg/kg): 176.59 ± 36.81 mm3
- Tumor Volume (mm3) (d30) ([3]; dose 30 mg/kg): 477.12 ± 166.46 mm3

- mouse weight compared with the model group ([2]; mouse, in vivo): no significant changes
- mouse weight compared with the model group ([3]; mouse, in vivo): no significant changes
SMILES: CO[C@@H]1[C@@H](O[C@@H]2O[C@H](C)[C@@H](O[C@H]3C[C@@](C)(O)[C@@H](OC(=O)CC(C)C)[C@H](C)O3)[C@H](N(C)C)[C@H]2O)[C@@H](CC=O)C[C@@H](C)[C@@H](O[C@H]2CC[C@H](N(C)C)[C@@H](C)O2)/C=C/C=C/C[C@@H](C)OC(=O)C[C@H]1O [Isovaleryl spiramycin I, isovaleryl spiramycin I]
- NK Cell Activity ([1]; 13 mg/kg): 52.5 ± 9.2%
- NK Cell Activity ([1]; 26 mg/kg): 67.0 ± 12.1 %
- NK Cell Activity ([1]; 52 mg/kg): 39.8 ± 6.8%
- NK cell activity compared with the control group ([1]; 13, 26 and 52 mg/kg, P<0.01): significantly increase
- Relative Tumor Proliferation Rate (T/C) [2, 4]: 33.95%
- tumor growth inhibition rate [2, 4]: 65.84%
- Relative Tumor Proliferation Rate (T/C) [2, 5]: 77.78%
- tumor growth inhibition rate [2, 5]: 20.55%
- tumor volume and relative tumor volume compared with the model group ([2]; T-24, low, medium and high doses, P<0.05): significantly lower
- Relative Tumor Proliferation Rate (T/C) [2, 6]: 58.92%
- tumor growth inhibition rate [2, 6]: 49.20%
- Inhibition Rate (%) ([2]; dose 25 mg/kg): 20.55%
- Relative Tumor Proliferation Rate (T/C) ([2]; dose 25 mg/kg): 77.78%
- Relative Tumor Volume (RTV) ([2]; dose 25 mg/kg): 10.28 ± 1.12
- Tumor Weight ([2]; dose 25 mg/kg): 1.49 ± 0.23 g
- Tumor Volume (mm3) (d 1) ([2]; dose 25 mg/kg, d 1): 139.84 ± 15.80 mm3
- Tumor Volume (mm3) (d30) ([2]; dose 25 mg/kg, d 30): 1428.71 ± 156.12 mm3
- Inhibition Rate (%) ([2]; dose 50 mg/kg): 49.20%
- Relative Tumor Proliferation Rate (T/C) ([2]; dose 50 mg/kg): 58.92%
- Relative Tumor Volume (RTV) ([2]; dose 50 mg/kg): 7.78 ± 1.27
- Tumor Weight ([2]; dose 50 mg/kg): 0.95 ± 0.38 g
- Tumor Volume (mm3) (d 1) ([2]; dose 50 mg/kg, d 1): 131.81 ± 7.15 mm3
- Tumor Volume (mm3) (d30) ([2]; dose 50 mg/kg, d 30): 1025.16 ± 174.78 mm3
- Inhibition Rate (%) ([2]; dose 100 mg/kg): 65.84%
- Relative Tumor Proliferation Rate (T/C) ([2]; dose 100 mg/kg): 33.95%
- Relative Tumor Volume (RTV) ([2]; dose 100 mg/kg): 4.48 ± 0.75
- Tumor Weight ([2]; dose 100 mg/kg): 0.64 ± 0.18 g
- Tumor Volume (mm3) (d 1) ([2]; dose 100 mg/kg, d 1): 134.21 ± 14.43 mm3
- Tumor Volume (mm3) (d30) ([2]; dose 100 mg/kg, d 30): 606.16 ± 136.06 mm3
- Body Weight (g) (d1) ([2]; mouse, in vivo, 25 mg/kg): 19.51 ± 0.58 g
- Body Weight (g) (d30) ([2]; mouse, in vivo, 25 mg/kg): 23.89 ± 1.18 g
- Body Weight (g) (d1) ([2]; mouse, in vivo, 50 mg/kg): 19.60 ± 0.70 g
- Body Weight (g) (d30) ([2]; mouse, in vivo, 50 mg/kg): 25.41 ± 0.92 g
- Body Weight (g) (d1) ([2]; mouse, in vivo, 100 mg/kg): 19.49 ± 0.54 g
- Body Weight (g) (d30) ([2]; mouse, in vivo, 100 mg/kg): 24.6 ± 2.08 g
- Relative Tumor Proliferation Rate (T/C) [3, 7]: 29.11%
- tumor growth inhibition rate [3, 7]: 70.14%
- Relative Tumor Proliferation Rate (T/C) [3, 8]: 81.60%
- tumor growth inhibition rate [3, 8]: 16.10%
- tumor volume and relative tumor volume compared with the model group ([3]; HT-29, low, medium and high doses, P<0.05): significantly lower
- Relative Tumor Proliferation Rate (T/C) [3, 9]: 49.22%
- tumor growth inhibition rate [3, 9]: 49.72%
- Inhibition Rate (%) ([3]; HT-29 nude mice, 25 mg/kg): 16.10%
- Tumor Weight ([3]; HT-29 nude mice, 25 mg/kg): 1.97 ± 0.31 g
- Inhibition Rate (%) ([3]; HT-29 nude mice, 50 mg/kg): 49.72%
- Tumor Weight ([3]; HT-29 nude mice, 50 mg/kg): 1.18 ± 0.34 g
- Inhibition Rate (%) ([3]; HT-29 nude mice, 100 mg/kg): 70.14%
- Tumor Weight ([3]; HT-29 nude mice, 100 mg/kg): 0.70 ± 0.29 g
- Relative Tumor Proliferation Rate (T/C) ([3]; dose 25 mg/kg): 81.60%
- Relative Tumor Volume (RTV) ([3]; dose 25 mg/kg): 11.76 ± 4.03
- Tumor Volume (mm3) (d 1) ([3]; dose 25 mg/kg): 162.77 ± 38.95 mm3
- Tumor Volume (mm3) (d30) ([3]; dose 25 mg/kg): 1803.98 ± 271.55 mm3
- Relative Tumor Proliferation Rate (T/C) ([3]; dose 50 mg/kg): 49.22%
- Relative Tumor Volume (RTV) ([3]; dose 50 mg/kg): 7.09 ± 1.47
- Tumor Volume (mm3) (d 1) ([3]; dose 50 mg/kg): 157.41 ± 37.31 mm3
- Tumor Volume (mm3) (d30) ([3]; dose 50 mg/kg): 1109.16 ± 320.27 mm3
- Relative Tumor Proliferation Rate (T/C) ([3]; dose 100 mg/kg): 29.11%
- Relative Tumor Volume (RTV) ([3]; dose 100 mg/kg): 4.19 ± 2.23
- Tumor Volume (mm3) (d 1) ([3]; dose 100 mg/kg): 169.25 ± 35.39 mm3
- Tumor Volume (mm3) (d30) ([3]; dose 100 mg/kg): 648.93 ± 198.53 mm3
- Body Weight (g) (d1) ([3]; mouse, in vivo, 25 mg/kg): 21.41 ± 1.41 g
- Body Weight (g) (d30) ([3]; mouse, in vivo, 25 mg/kg): 20.98 ± 0.99 g
- Body Weight (g) (d1) ([3]; mouse, in vivo, 50 mg/kg): 21.31 ± 1.53 g
- Body Weight (g) (d30) ([3]; mouse, in vivo, 50 mg/kg): 20.56 ± 1.09 g
- Body Weight (g) (d1) ([3]; mouse, in vivo, 100 mg/kg): 20.77 ± 1.13 g
- Body Weight (g) (d30) ([3]; mouse, in vivo, 100 mg/kg): 21.19 ± 1.26 g
